Results reported in ChEMBL document CHEMBL5537154, “Smart glypican-3-targeting peptide-chlorin e6 conjugates for targeted photodynamic therapy of hepatocellular carcinoma” (Eur J Med Chem, 2024).
Active and inactive are the calls of the source. No cut-off for these calls is given here. Peptide text beside a SMILES is read from it.

Legend:
HepG2 [1] = assay: Induction of apoptosis in human HepG2 cells assessed as necrotic cells under dark condition at 2.5 uM incubated for 24 hrs by Annexin V-FITC/PI staining based flow cytometry relative to control; assay type: functional
[2] = Toxicity in BALB/C nude mouse model xenografted with human HepG2 cells assessed as damage in liver at 1 to 2 uM/kg, iv administered every two days for 21 days along with 250 mW/cm2 light irradiation at 660 nm for 10 mins at 1 hr post-compound administration by H and E staining based analysis; assay type: organism-based; conditions: in vivo, 505.17 h, dose 1-2 µM/Kg, time 505.166 hrs
[3] = Partition coefficient, logP of compound; assay type: physicochemical; conditions: octanol/water
HepG2 [4] = assay: Induction of apoptosis in human HepG2 cells assessed as necrotic cells under dark condition at 5 uM incubated for 24 hrs by Annexin V-FITC/PI staining based flow cytometry relative to control; assay type: functional
[5] = Toxicity in BALB/C nude mouse model xenografted with human HepG2 cells assessed as change in spleen weight at 1 to 2 uM/kg, iv administered every two days for 21 days along with 250 mW/cm2 light irradiation at 660 nm for 10 mins at 1 hr post-compound administration; assay type: organism-based; conditions: in vivo, 505.17 h, dose 1-2 µM/Kg, time 505.166 hrs
HepG2 [6] = assay: Induction of cell cycle arrest at S phase in human HepG2 cells at 1 uM under 10 J/cm2 light irradiation at 660 nm by flow cytometry relative to control; assay type: functional
HepG2 [7] = assay: Induction of apoptosis in human HepG2 cells assessed as necrotic cells at 5 uM incubated for 24 hrs followed by 10 J/cm2 of light irradiation at 660 nm measured after 24 hrs by Annexin V-FITC/PI staining based flow cytometry relative to control; assay type: functional; conditions: time 48 hrs
[8] = Drug distribution in tumor of BALB/C nude mouse model xenografted with human HepG2 cells administered intravenously measured after 2 hrs by fluorescence spectrophotometry; assay type: ADME, tissue-based, Neoplasm; conditions: in vivo, iv, dose 1-2 µM/Kg
[9] = Toxicity in BALB/C nude mouse model xenografted with human HepG2 cells assessed as damage in lung at 1 to 2 uM/kg, iv administered every two days for 21 days along with 250 mW/cm2 light irradiation at 660 nm for 10 mins at 1 hr post-compound administration by H and E staining based analysis; assay type: organism-based; conditions: in vivo, 505.17 h, dose 1-2 µM/Kg, time 505.166 hrs
[10] = Drug uptake in lysosome of human HepG2 cells assessed as pearsons co-efficient of lyso tracker green DND-26-yellow signal at 2 uM incubated for 24 hrs by laser confocal microscopy; assay type: ADME, subcellular; conditions: hepg2, 24 h
[11] = Toxicity in BALB/C nude mouse model xenografted with human HepG2 cells assessed as change in lung weight at 1 to 2 uM/kg, iv administered every two days for 21 days along with 250 mW/cm2 light irradiation at 660 nm for 10 mins at 1 hr post-compound administration; assay type: organism-based; conditions: in vivo, 505.17 h, dose 1-2 µM/Kg, time 505.166 hrs
[12] = Toxicity in BALB/C nude mouse model xenografted with human HepG2 cells assessed as drug tolerance at 1 to 2 uM/kg, iv administered every two days for 21 days along with 250 mW/cm2 light irradiation at 660 nm for 10 mins at 1 hr post-compound administration; assay type: organism-based; conditions: in vivo, 505.17 h, dose 1-2 µM/Kg, time 505.166 hrs
[13] = Drug distribution in tumor of BALB/C nude mouse model xenografted with human HepG2 cells at 1 to 2 uM/kg, iv measured for 1 to 6 hrs by fluorescence imaging analysis; assay type: ADME, organism-based, Neoplasm; conditions: in vivo, dose lower 1 µM/Kg, time lower 1 hrs, dose upper 2 µM/Kg, time upper 6 hrs
chymotrypsin = chymotrypsin (Homo sapiens, UniProt P17538+P40313+Q6GPI1+Q99895); assay: Stability of compound assessed as chymotrypsin (unknown origin)-mediated compound degradation in PBS at pH 7.4 by measuring half life; assay type: ADME, protein assay
HepG2 [14] = assay: Induction of apoptosis in human HepG2 cells assessed as late apoptotic cells at 5 uM incubated for 24 hrs followed by 10 J/cm2 of light irradiation at 660 nm measured after 24 hrs by Annexin V-FITC/PI staining based flow cytometry relative to control; assay type: functional; conditions: time 48 hrs
[15] = Drug distribution in BALB/C nude mouse model xenografted with human HepG2 cells at 1 to 2 uM/kg, iv measured after 1 hr by fluorescence imaging analysis; assay type: ADME, organism-based; conditions: in vivo, dose 1-2 µM/Kg
HepG2 [16] = assay: Antitumor activity against human HepG2 cells xenografted in BALB/C nude mouse model assessed as decrease in Ki67 expression at 1 to 2 uM/kg, iv administered every two days for 21 days along with 250 mW/cm2 light irradiation at 660 nm for 10 mins at 1 hr post-compound administration by […] based analysis; assay type: functional, organism-based; conditions: dose 1-2 µM/Kg, time 505.166 hrs
[17] = Drug uptake in endoplasmic reticulum of human HepG2 cells assessed as pearsons co-efficient of ER tracker green-yellow signal at 2 uM incubated for 24 hrs by laser confocal microscopy; assay type: ADME, subcellular; conditions: hepg2, 24 h
HeLa [18] = assay: Antiproliferative activity against human HeLa cells under 10 J/cm2 light irradiation at 660 nm by CCK8 assay; assay type: functional, cell-based; conditions: light or radiation study
[19] = Toxicity in BALB/C nude mouse model xenografted with human HepG2 cells assessed as damage in spleen at 1 to 2 uM/kg, iv administered every two days for 21 days along with 250 mW/cm2 light irradiation at 660 nm for 10 mins at 1 hr post-compound administration by H and E staining based analysis; assay type: organism-based; conditions: in vivo, 505.17 h, dose 1-2 µM/Kg, time 505.166 hrs
HepG2 [20] = assay: Induction of cell cycle arrest at S phase in human HepG2 cells at 1 uM by flow cytometry relative to control; assay type: functional
HepG2 [21] = assay: Induction of ROS generation in human HepG2 cells at 10 uM incubated for 24 hrs by DCFH-DA probe based flow cytometry; assay type: functional, cell-based
HepG2 [22] = assay: Induction of ROS generation in human HepG2 cells at 10 uM preincubated for 24 hrs followed by DCFH-DA probe addition and further incubated under dark condition for 20 mins prior and 20 mins post- light irradiation of 10 J/cm2 at 660 nm by flow cytometry; assay type: functional, cell-based; conditions: time 24.66 hrs
[23] = Drug distribution in tumor of BALB/C nude mouse model xenografted with human HepG2 cells at 1 uM/kg, iv measured after 2 hrs by fluorescence spectrophotometry; assay type: ADME, organism-based, Neoplasm; conditions: in vivo
[24] = Drug uptake in human HUVEC cells at 500 nM incubated for 0.5 hrs by flow cytometry; assay type: ADME, cell-based; conditions: 0.5 µM
[25] = Drug distribution in spleen of BALB/C nude mouse model xenografted with human HepG2 cells at 1 to 2 uM/kg, iv measured for 1 to 4 hrs by fluorescence imaging analysis; assay type: ADME, organism-based; conditions: in vivo, dose lower 1 µM/Kg, time lower 1 hrs, dose upper 2 µM/Kg, time upper 4 hrs
HepG2 [26] = assay: Induction of apoptosis in human HepG2 cells assessed as late apoptotic cells under dark condition at 2.5 uM incubated for 24 hrs by Annexin V-FITC/PI staining based flow cytometry relative to control; assay type: functional
[27] = Drug distribution in liver of BALB/C nude mouse model xenografted with human HepG2 cells at 1 to 2 uM/kg, iv measured for 1 to 4 hrs by fluorescence imaging analysis; assay type: ADME, organism-based; conditions: in vivo, dose lower 1 µM/Kg, time lower 1 hrs, dose upper 2 µM/Kg, time upper 4 hrs
[28] = Drug distribution in tumor of BALB/C nude mouse model xenografted with human Huh-7 cells administered intravenously measured after 2 hrs by fluorescence spectrophotometry; assay type: ADME, tissue-based, Neoplasm; conditions: in vivo, iv, dose 1-2 µM/Kg
[29] = Drug distribution in lung of BALB/C nude mouse model xenografted with human HepG2 cells at 1 to 2 uM/kg, iv measured for 1 to 4 hrs by fluorescence imaging analysis; assay type: ADME, organism-based; conditions: in vivo, dose lower 1 µM/Kg, time lower 1 hrs, dose upper 2 µM/Kg, time upper 4 hrs
HeLa [30] = assay: Antiproliferative activity against human HeLa cells under dark condition by CCK8 assay; assay type: functional, cell-based

Compound: C=Cc1c(C)c2cc3nc(c(CC(=O)O)c4[nH]c(cc5nc(cc1[nH]2)C(C)=C5CC)c(C)c4C(=O)NCCCC(=O)N[C@@H](CC(=O)O)C(=O)N[C@@H](Cc1cnc[nH]1)C(=O)N[C@@H](CC(C)C)C(=O)N[C@@H](C)C(=O)N[C@@H](CO)C(=O)N[C@@H](CC(C)C)C(=O)N[C@@H](Cc1c[nH]c2ccccc12)C(=O)N[C@@H](Cc1c[nH]c2ccccc12)C(=O)NCC(=O)N[C@H](C(=O)N[C@@H](CCC(=O)O)C(=O)N[C@@H](CC(C)C)C(=O)O)[C@@H](C)O)[C@@H](CCC(=O)O)[C@@H]3C (HELM PEPTIDE1{[C=Cc1c(C)c2cc3nc(c(CC(=O)O)c4[nH]c(cc5nc(cc1[nH]2)C(C)=C5CC)c(C)c4C(=O)[*:2])[C@@H](CCC(=O)O)[C@@H]3C].[O=C(CCCN[*:1])[*:2]].D.H.L.A.S.L.W.W.G.T.E.L}$$$$V2.0)
- Activity (HepG2 [1]): 0.2%
- Activity [2]: Non-Toxic
- logP [3]: 1.8
- Activity (HepG2 [4]): 0.1%
- Activity [5]: Non-Toxic
- Activity (HepG2 [6]): 27.7%
- Activity (HepG2 [7]): 15.3%
- Drug uptake [8]: Dose-Dependent Effect
- Activity [9]: Non-Toxic
- Activity [10]: 0.79
- Activity [11]: Non-Toxic
- Activity [12]: Non-Toxic
- Drug uptake [13]: Active
- half-life (chymotrypsin): 7.6 h
- Activity (HepG2 [14]): 9.3%
- Drug uptake [15]: Active
- Activity (HepG2 [16]): Active
- Activity [17]: 0.65
- IC50 (HeLa [18]): > 10 µM
- Activity [19]: Non-Toxic
- Activity (HepG2 [20]): 21.8%
- Activity (HepG2 [21]): inactive
- Activity (HepG2 [22]): Active
- Drug uptake [23]: Active
- Drug uptake [24]: Not Active
- Drug uptake [25]: Not Active
- Activity (HepG2 [26]): 2%
- Drug uptake [27]: Not Active
- Drug uptake [28]: Active
- Drug uptake [29]: Not Active
- IC50 (HeLa [30]): > 100 µM
